{"source": "patent US20110217412A1", "about": "“CHOLESTEROL LOWERING SUPPLEMENT AND LOW CHOLESTEROL EGG PRODUCED BY USING THE SAME” (JINIS BIOPHARMACEUTICALS CO., priority 2004, published 2011)", "key": {"[1]": {"conditions": "cited from earlier work"}, "ISA brown hens [2]": {"test_system": "ISA brown hens", "assay": "Egg laying performance of hens fed supplemented diet (egg weight, egg production)", "format": "in vivo", "conditions": "for Egg production: 6 weeks", "description": "(§1) Healthy ISA brown hens, 45-week old, were assigned randomly to each dietary group (control group, 8 birds; experimental group, 6 birds each). Each bird was placed in an individual cage in an environmentally controlled room (25° C., 50% relative humidity, 16L:8D). The hens were allowed for 2 weeks in which to adapt to the feed with no additives and the housing. Control birds were fed a commercial diet based on corn and soybean meal (Table 1), while birds in experimental groups were fed diets supplemented with 0.003 or 0.03% of compactin (Sigma Aldrich Korea) for 6 weeks. Feed and water were provided ad libitum throughout the experiment. Feed consumption, egg production and egg weight were recorded daily. Egg production was expressed as percent hen day production; (100×number of eggs laid)/(number of hens×days).\nThe effects of 0.003% or 0.03% compactin on the laying performance of 45-week old ISA brown hens were investigated (Table 2). Egg weight was maintained at more than 60 grams after 6 weeks of oral administrations of compactin at both doses. […] Maintenance of laying performance with compactin feeding is of contrast to the previous art in which atorvastatin reduced egg production down to 70% after feeding for 5-week.\nEgg production and yolk cholesterol analysis was performed with 0.003 and 0.03% pravastatin administered group with the same procedure as described in Example 1 above. Hen performance was investigated by measuring egg weight and egg production as in Table 4. Pravastatin group had maintained above 80% of egg production rate after 6-week administration, same as control.\n(§2) Egg production and yolk cholesterol analysis was performed with the same procedure as described in Example 1 above except 0.5 and 1% of Streptomyces cell precipitates and bioconversion reaction broth were administered instead of compactin. Hen performance was investigated by measuring egg weight and egg production as in Table 6."}, "ISA brown hens [3]": {"test_system": "ISA brown hens", "assay": "Egg cholesterol analysis (yolk weight, gas chromatography of yolk cholesterol) of hens fed supplemented diet", "format": "in vivo", "conditions": "compared to control", "description": "as §1\nFor egg cholesterol analysis, eggs from each bird were collected and egg yolk was separated, weighed, and sampled for analysis. Lipids from eggs were extracted by the method of Folch et al. (1957). Briefly, one gram of sample was saponified with 3 mL of 33% KOH and incubated with 30 mL of 95% methanol in a 65° C. water bath for 90 min. After saponification, 10 mL hexane and 3 mL water were added, followed by vigorous shaking for 10 min. 5α-cholestan (Sigma C-8300) was used as an internal standard. Cholesterol content was determined by a gas chromatography (Shimadzu, Japan) using column VB-1 (30 m×0.25 mm×0.25 μm, VICI Inc.) with a split ratio of 100:1 and nitrogen as carrier gas for a column flow rate of 0.54 mL/min. Injector, column, and detector temperatures were 275° C., 290° C., and 340° C., respectively. […] The average control yolk weight was 17.2 g. […] Administration of compactin caused the significant reduction in yolk weight, compared to the control with 12.8 mg cholesterol per gram of yolk. When expressed as total yolk cholesterol content, percentage changes compared to that of control were 16% and 29% at 0.003% and 0.03% compactin, respectively.\nStreptomyces cell precipitates and cell culture broth after compactin bioconversion were used as cholesterol lowering supplements respectively. First, compactin bioconversion was done as following. Single colony of streptomyces carbophilus was inoculated into 100 ml R2YE in 500 ml erlenmyer flask and incubated at 27° C. at 200 rpm for 3 days. After incubation, 10 ml of seed culture was added to 100 ml of conversion media (glucose 2.0%, corn steep liquor 0.2%, K2HPO4 0.15%, yeast extract 0.1%, MgSO4.7H2O 0.15%, ZnSO47H2O 0.001%, NH4NO3 0.1%, peptone 0.1%, pH 7.0) in 500 ml flask and incubated at 27° C. at 200 rpm for 3 days. Then, filter sterilized compactin salt was added into culture up to 0.1% weight of culture and incubated for another 4 days. After bioconversion reaction, culture media was analyzed by TLC to confirm the presence of compactin and pravastatin. This culture was freeze dried for 24 hours and then used as cholesterol lowering supplements. Also Streptomyces cells were obtained from bioconversion reaction by centrifugation at 3,000×g. Streptomyces cell precipitates recovered as pellets was dried at 60° C. and used as cholesterol lowering supplements. Streptomyces cell precipitates as well as bioconversion reaction broth was dried and used as cholesterol lowering supplements as shown in Example 1. Egg production and cholesterol amount were measured afterward.\nas §2"}, "hens [4]": {"test_system": "hens", "conditions": "cited from earlier work"}, "hens [5]": {"test_system": "hens", "conditions": "cited from earlier work", "remark": "listed apart in the source"}, "[6]": {"conditions": "0.003 weight % pravastatin in feed"}, "[7]": {"conditions": "0.03 weight % pravastatin in feed"}}}
{"compound": "CC[C@H](C)C(=O)O[C@H]1CCC=C2C=C[C@H](C)[C@H](CC[C@@H]3C[C@@H](O)CC(=O)O3)[C@H]21", "note": "[Compactin, compactin]", "values": [{"measurement": "Toxicity in clinical trials", "setting": "[1]", "result": "serious toxicity"}, {"measurement": "Difference in egg production compared to the control group", "setting": "ISA brown hens [2]; in vivo", "result": "did not cause any difference in egg production"}, {"measurement": "Reduction rates in the production of eggs", "setting": "ISA brown hens [2]; in vivo", "result": "at most 5%"}, {"measurement": "Cholesterol content change", "setting": "ISA brown hens [3]; 0.003 weight % compactin in feed", "result": "−16", "unit": "%"}, {"measurement": "Cholesterol content change", "setting": "ISA brown hens [3]; 0.003 weight % compactin in feed, listed as compactin", "result": -16, "unit": "%"}, {"measurement": "Cholesterol content change", "setting": "ISA brown hens [3]; 0.03 weight % compactin in feed", "result": "−29", "unit": "%"}, {"measurement": "Cholesterol content change", "setting": "ISA brown hens [3]; 0.03 weight % compactin in feed, listed as compactin", "result": -29, "unit": "%"}]}
{"compound": "pravastatin", "values": [{"measurement": "Egg production", "setting": "ISA brown hens [2]; [6]", "result": 84, "unit": "%"}, {"measurement": "Egg production", "setting": "ISA brown hens [2]; [7]", "result": 82, "unit": "%"}, {"measurement": "Egg production rate maintained", "setting": "ISA brown hens [2]; after 6-week administration of pravastatin (0.003 and 0.03%)", "result": "above 80%"}, {"measurement": "Cholesterol content change", "setting": "ISA brown hens [3]; [6]", "result": "−6", "unit": "%"}, {"measurement": "Cholesterol content change", "setting": "ISA brown hens [3]; [7]", "result": "−24", "unit": "%"}]}
{"compound": "CC[C@H](C)C(=O)O[C@H]1C[C@@H](C)C=C2C=C[C@H](C)[C@H](CC[C@@H]3C[C@@H](O)CC(=O)O3)[C@H]21", "note": "[lovastatin]", "values": [{"measurement": "Reduction in cholesterol content in eggs", "setting": "hens [4]; dose of 0.03%", "result": "~3.9", "unit": "%"}]}
{"compound": "CC(C)c1c(C(=O)Nc2ccccc2)c(-c2ccccc2)c(-c2ccc(F)cc2)n1CC[C@@H](O)C[C@@H](O)CC(=O)O", "note": "[atorvastatin]", "values": [{"measurement": "Reduction of egg production versus control group", "setting": "hens [5]; 2, 3 and 4 weeks after administration, Table 2 of U.S. Pat. No. 6,177,121", "result": 20, "unit": "%"}, {"measurement": "Egg production reduced down to", "setting": "hens [5]; after feeding for 5-week", "result": 70, "unit": "%"}, {"measurement": "Effect on the cholesterol content in eggs", "setting": "hens [4]; according to U.S. Pat. No. 6,177,121", "result": "distinctly effective"}]}
